Test results: PubChem BioAssay (NCI)
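Where inhibition never reached the appropriate level, the endpoint shown equals the highest concentration tested. Otherwise, values were interpolated linearly from a five-concentration, 48-hour dose response in 96-well plates. Abbreviation: GI50, concentration required for 50% inhibition of growth. At the TGI there is no net growth.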

Key:
Test in all cases: NCI-60 cell line screen, 48 h
HT29 colon = system: HT29 colon
IGROV1 ovarian = system: IGROV1 ovarian
MALME-3M melanoma = system: MALME-3M melanoma
NCI-H23 lung = system: NCI-H23 lung
OVCAR-5 ovarian = system: OVCAR-5 ovarian
SK-MEL-5 melanoma = system: SK-MEL-5 melanoma
SNB-75 CNS = system: SNB-75 CNS
SR leukemia = system: SR leukemia
UACC-62 melanoma = system: UACC-62 melanoma
UO-31 renal = system: UO-31 renal

Compound	GI50 (HT29 colon)	TGI (HT29 colon)	GI50 (IGROV1 ovarian)	TGI (IGROV1 ovarian)	GI50 (MALME-3M melanoma)	TGI (MALME-3M melanoma)	GI50 (NCI-H23 lung)	TGI (NCI-H23 lung)	GI50 (OVCAR-5 ovarian)	TGI (OVCAR-5 ovarian)	GI50 (SK-MEL-5 melanoma)	TGI (SK-MEL-5 melanoma)	GI50 (SNB-75 CNS)	TGI (SNB-75 CNS)	GI50 (SR leukemia)	TGI (SR leukemia)	GI50 (UACC-62 melanoma)	TGI (UACC-62 melanoma)	GI50 (UO-31 renal)	TGI (UO-31 renal)
Fc1ccc(/C=N/n2c(-c3ccc(F)c(Cl)c3)nn(CNc3ccccc3C(F)(F)F)c2=S)cc1	94.4 µM	> 100 µM	83.6 µM	> 100 µM	27.2 µM	95.7 µM	61.7 µM	> 100 µM	> 100 µM	> 100 µM	33 µM	> 100 µM	> 100 µM	> 100 µM	31.2 µM	> 100 µM	39.2 µM	> 100 µM	34.8 µM	> 100 µM
Cc1cc(S(=O)(=O)/N=C(/N)Nc2ccccc2O)c(SCc2ccccc2)cc1Cl	32.5 µM	> 100 µM	11 µM	26.9 µM	20.3 µM	38.2 µM	17.1 µM	34.4 µM	19.8 µM	35.9 µM	14.6 µM	30.5 µM	19.3 µM	39.2 µM	5.79 µM	> 100 µM	9.6 µM	22.7 µM	6.99 µM	25.7 µM
OCC12C3C4C5C3C1C5C42 (stereo not given)	–	> 100 µM	–	> 100 µM	–	> 100 µM	–	> 100 µM	–	> 100 µM	–	> 100 µM	–	> 100 µM	–	> 100 µM	–	> 100 µM	–	> 100 µM
O=C1c2cccnc2C(=O)c2c1c(C(=O)NCCCN1CCCCC1)c1ccccn21	0.391 µM	2.92 µM	1.23 µM	3.62 µM	0.226 µM	0.684 µM	0.436 µM	2.75 µM	1.85 µM	7.44 µM	0.36 µM	1.35 µM	1.36 µM	2.86 µM	0.474 µM	> 100 µM	0.624 µM	2.51 µM	1.42 µM	6.71 µM
FC(F)(F)c1ccc(-c2cnc(-c3ncon3)nc2NC2CCCCCC2)cc1	34.7 µM	> 100 µM	52.5 µM	> 100 µM	49.8 µM	> 100 µM	37 µM	> 100 µM	> 100 µM	> 100 µM	40.7 µM	> 100 µM	50.5 µM	> 100 µM	20.4 µM	56.8 µM	48.6 µM	> 100 µM	26.4 µM	> 100 µM
O=C1c2ccccc2-c2cc([N+](=O)[O-])c([N+](=O)[O-])cc21	–	3.87 µM	–	2.84 µM	–	4.95 µM	–	3.25 µM	–	5.41 µM	–	3.94 µM	–	3.39 µM	–	0.459 µM	–	3.13 µM	–	3.07 µM
CC(C)C[C@H](NC(=O)CNC(=O)c1cc(Cl)ccc1Cl)B1OC(=O)CC(CC(=O)O)(C(=O)O)O1 (stereo not given in full)	0.0327 µM	0.141 µM	0.231 µM	> 41.8 µM	0.0329 µM	0.412 µM	0.048 µM	6.44 µM	0.0928 µM	1.2 µM	0.0177 µM	0.0467 µM	0.182 µM	0.504 µM	0.0384 µM	> 100 µM	0.0396 µM	0.221 µM	0.0586 µM	2 µM
